# Data reported in US6706663B2, “Herbicidal 3-heterocyclic substituted benzisothiazole and benzisoxazole compounds” (Wyeth, priority 2000, dated 2004).
# Tests used:
# SETVI (Setaria viridis) [1] = experiment: Preemergence herbicidal evaluation; type: in vivo, (L.) Beau; details: rated 4-5 weeks after treatment
# Method in brief: (§1)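 Test compound is applied in aqueous acetone to cups just after seeding. Cups are watered and maintained on greenhouse benches. Each cup is scored 0–9 by eye relative to a control after four to five weeks.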
# [2] = tested on: ECHCG (Echinochloa crus-galli); experiment: Preemergence herbicidal evaluation; type: in vivo, (L.) Beau; details: rated 4-5 weeks after treatment
# Method in brief: as §1
# [3] = tested on: TRZAWR (Wheat, Winter, cv Riband); experiment: Postemergence herbicidal evaluation; type: in vivo, Triticum aestivum
# Method in brief: (§2)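 Seedlings grown for about two weeks were sprayed postemergence and then kept under standard greenhouse care. Injury was rated visually 4–5 weeks after treatment on a 0–9 scale against untreated controls, and ratings from repeat tests were averaged.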
# [4] = tested on: ECHCG (Echinochloa crus-galli); experiment: Postemergence herbicidal evaluation; type: in vivo, (L.) Beau
# Method in brief: as §2
# [5] = tested on: CYPSE (Cyperus serotinus); experiment: Flooded paddy, preemergence weed control; type: in vivo, Rottb.; details: rated 3-4 weeks after treatment, 0-9 rating scale
# Method in brief: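 Herbicidal effect was scored visually on a 0–9 scale against an untreated control 3–4 weeks after treatment. Compounds were applied preemergence as 50/50 v/v aqueous/acetone mixtures into flood water (1.5–3 cm deep over silt loam), at roughly 0.0080 to 0.1250 kg/ha active ingredient.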
# [6] = tested on: CHEAL (Chenopodium album); experiment: Preemergence herbicidal evaluation; type: in vivo, L.; details: rated 4-5 weeks after treatment
# Method in brief: as §1
# [7] = tested on: AMBEL (Ambrosia artemisifolia); experiment: Preemergence herbicidal evaluation; type: in vivo, L.; details: rated 4-5 weeks after treatment
# Method in brief: as §1
# [8] = tested on: CASOB (Cassia obtusifolia); experiment: Preemergence herbicidal evaluation; type: in vivo, L.; details: preemergence, rated 4-5 weeks after treatment
# Method in brief: as §1
# [9] = tested on: MOOVA (Monochoria vaginalis); experiment: Flooded paddy, preemergence weed control; type: in vivo, Presl.; details: rated 3-4 weeks after treatment, 0-9 rating scale
# Method in brief: (§3)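 Flooded silt loam pots, seeds in upper 0.5 cm, water held 1.5–3 cm deep; greenhouse; visual 0-9 score vs control.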
# ZEAMX (Corn, Field) = experiment: Postemergence herbicidal evaluation; type: in vivo, Zea mays, L.
# Method in brief: as §2
# [10] = tested on: IPOHE (Ipomoea hederacea); experiment: Postemergence herbicidal evaluation; type: in vivo, (L.) Jacq.
# Method in brief: as §2
# [11] = tested on: TRZAWR (Wheat, Winter, cv Riband); experiment: Preemergence herbicidal evaluation; type: in vivo, Triticum aestivum; details: rated 4-5 weeks after treatment
# Method in brief: as §1
# ORYSAT (Rice, Tebonnet) [12] = experiment: Postemergence herbicidal evaluation; type: in vivo, Oryza sativa, (L.) Tebonnet
# Method in brief: as §2
# ORYSAT (Rice, Tebonnet) [13] = experiment: Preemergence herbicidal evaluation; type: in vivo, Oryza sativa, (L.) Tebonnet; details: rated 4-5 weeks after treatment
# [14] = tested on: ECHORC (Echinochloa oryzoides); experiment: Flooded paddy, preemergence weed control; type: in vivo, Echinochloa oryzoides (Ard.) Fritsch.; details: rated 3-4 weeks after treatment, 0-9 rating scale
# Method in brief: as §3
# GALAP (Galium aparine) = experiment: Preemergence herbicidal evaluation; type: in vivo; details: rated 4-5 weeks after treatment
# Method in brief: as §1
# SETVI (Setaria viridis) [15] = experiment: Postemergence herbicidal evaluation; type: in vivo, (L.) Beau
# Method in brief: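 First, seedlings are raised in flats for about two weeks. Next, compound dispersed in 50/50 acetone/water with 0.5% TWEEN 20 is sprayed at 40 psi to deliver about 0.0040–1.000 kg/ha. Plants are then maintained in the greenhouse and rated 0-9 after four to five weeks.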
# [16] = tested on: GLXMAW (Soybean, Williams); experiment: Postemergence herbicidal evaluation; type: in vivo, Glycine max, (L.) Merr. cv Williams
# Method in brief: as §2
# [17] = tested on: ABUTH (Abutilon theophrasti); experiment: Preemergence herbicidal evaluation; type: in vivo, Medic.; details: rated 4-5 weeks after treatment
smiles,measurement,setting,value
"Cc1ccn(-c2nsc3ccc(-n4c(=O)cc(C(F)(F)F)n(C)c4=O)cc23)n1 [Compound 38, 1-methyl-3-[3-(3-methylpyrazol-1-yl)-1,2-benzisothiazol-5-yl]-6-(trifluoromethl)uracil]",SETVI preemergence herbicidal rating,SETVI (Setaria viridis) [1]; Rate 0.0620 kg/ha,5.0
same,SETVI preemergence herbicidal rating,SETVI (Setaria viridis) [1]; Rate 0.1250 kg/ha,9.0
same,SETVI preemergence herbicidal rating,SETVI (Setaria viridis) [1]; Rate 0.2500 kg/ha,9.0
same,ECHCG preemergence herbicidal rating,[2]; Rate 0.0620 kg/ha,7.0
same,ECHCG preemergence herbicidal rating,[2]; Rate 0.1250 kg/ha,9.0
same,ECHCG preemergence herbicidal rating,[2]; Rate 0.2500 kg/ha,9.0
same,"Postemergence herbicidal rating, TRZAWR",[3]; rate 0.0320 kg/ha,3.5
same,"Postemergence herbicidal rating, TRZAWR",[3]; rate 0.0620 kg/ha,4.0
same,"Postemergence herbicidal rating, ECHCG",[4]; rate 0.0320 kg/ha,0.0
same,"Postemergence herbicidal rating, ECHCG",[4]; rate 0.0620 kg/ha,3.0
same,"herbicidal rating, CYPSE",[5]; rate 0.0320 kg/ha,9.0
same,"herbicidal rating, CYPSE",[5]; rate 0.1250 kg/ha,9.0
same,CHEAL preemergence herbicidal rating,[6]; Rate 0.0620 kg/ha,9.0
same,CHEAL preemergence herbicidal rating,[6]; Rate 0.1250 kg/ha,9.0
same,CHEAL preemergence herbicidal rating,[6]; Rate 0.2500 kg/ha,9.0
same,AMBEL preemergence herbicidal rating,[7]; Rate 0.0620 kg/ha,0.0
same,AMBEL preemergence herbicidal rating,[7]; Rate 0.1250 kg/ha,3.0
same,AMBEL preemergence herbicidal rating,[7]; Rate 0.2500 kg/ha,7.0
same,CASOB preemergence herbicidal rating,[8]; Rate 0.0620 kg/ha,0.0
same,CASOB preemergence herbicidal rating,[8]; Rate 0.1250 kg/ha,0.0
same,CASOB preemergence herbicidal rating,[8]; Rate 0.2500 kg/ha,0.0
same,"herbicidal rating, MOOVA",[9]; rate 0.0080 kg/ha,3.0
same,"herbicidal rating, MOOVA",[9]; rate 0.0320 kg/ha,9.0
same,"Postemergence herbicidal rating, ZEAMX","ZEAMX (Corn, Field); rate 0.0320 kg/ha",5.0
same,"Postemergence herbicidal rating, ZEAMX","ZEAMX (Corn, Field); rate 0.0620 kg/ha",5.5
same,"Postemergence herbicidal rating, IPOHE",[10]; rate 0.0320 kg/ha,7.0
same,"Postemergence herbicidal rating, IPOHE",[10]; rate 0.0620 kg/ha,9.0
same,TRZAWR preemergence herbicidal rating,[11]; Rate 0.0620 kg/ha,3.0
same,TRZAWR preemergence herbicidal rating,[11]; Rate 0.1250 kg/ha,4.0
same,TRZAWR preemergence herbicidal rating,[11]; Rate 0.2500 kg/ha,5.0
same,"Postemergence herbicidal rating, ORYSAT","ORYSAT (Rice, Tebonnet) [12]; rate 0.0320 kg/ha",2.5
same,"Postemergence herbicidal rating, ORYSAT","ORYSAT (Rice, Tebonnet) [12]; rate 0.0620 kg/ha",3.5
same,ORYSAT preemergence herbicidal rating,"ORYSAT (Rice, Tebonnet) [13]; Rate 0.0620 kg/ha",4.0
same,ORYSAT preemergence herbicidal rating,"ORYSAT (Rice, Tebonnet) [13]; Rate 0.1250 kg/ha",5.0
same,ORYSAT preemergence herbicidal rating,"ORYSAT (Rice, Tebonnet) [13]; Rate 0.2500 kg/ha",7.0
same,"herbicidal rating, ECHORC",[14]; rate 0.0080 kg/ha,0.0
same,"herbicidal rating, ECHORC",[14]; rate 0.0320 kg/ha,7.0
same,"herbicidal rating, ECHORC",[14]; rate 0.1250 kg/ha,9.0
same,GALAP preemergence herbicidal rating,GALAP (Galium aparine); Rate 0.0620 kg/ha,5.0
same,GALAP preemergence herbicidal rating,GALAP (Galium aparine); Rate 0.1250 kg/ha,3.0
same,GALAP preemergence herbicidal rating,GALAP (Galium aparine); Rate 0.2500 kg/ha,5.0
same,"Postemergence herbicidal rating, SETVI",SETVI (Setaria viridis) [15]; rate 0.0320 kg/ha,0.0
same,"Postemergence herbicidal rating, SETVI",SETVI (Setaria viridis) [15]; rate 0.0620 kg/ha,3.0
same,"Postemergence herbicidal rating, GLXMAW",[16]; rate 0.0320 kg/ha,5.5
same,"Postemergence herbicidal rating, GLXMAW",[16]; rate 0.0620 kg/ha,7.0
same,ABUTH preemergence herbicidal rating,[17]; Rate 0.0620 kg/ha,4.0
same,ABUTH preemergence herbicidal rating,[17]; Rate 0.1250 kg/ha,4.0
same,ABUTH preemergence herbicidal rating,[17]; Rate 0.2500 kg/ha,6.0
"C#CCOC(=O)COc1ccsc1-c1nsc2ccc(-n3c(=O)cc(C(F)(F)F)n(C)c3=O)cc12 [Compound 39, 2-propynyl [[2-[5-[3,6-dihydro-3-methyl-2,6-dioxo-4-(trifluoromethyl)-1(2H)-pyrimidinyl]-1,2-benzisothiazol-3-yl]-3-thienyl]oxy]acetate]",Preemergence herbicidal rating SETVI,SETVI (Setaria viridis) [1]; Rate 0.0620 kg/ha,0.0
same,SETVI preemergence herbicidal rating,SETVI (Setaria viridis) [1]; Rate 0.1250 kg/ha,1.0
same,SETVI preemergence herbicidal rating,SETVI (Setaria viridis) [1]; Rate 0.2500 kg/ha,6.0
same,Preemergence herbicidal rating ECHCG,[2]; Rate 0.0620 kg/ha,0.0
same,ECHCG preemergence herbicidal rating,[2]; Rate 0.1250 kg/ha,0.0
same,ECHCG preemergence herbicidal rating,[2]; Rate 0.2500 kg/ha,0.0
same,"Postemergence herbicidal rating, TRZAWR",[3]; rate 0.0320 kg/ha,1.5
same,"Postemergence herbicidal rating, TRZAWR",[3]; rate 0.0620 kg/ha,2.0
same,"Postemergence herbicidal rating, ECHCG",[4]; rate 0.0320 kg/ha,0.0
same,"Postemergence herbicidal rating, ECHCG",[4]; rate 0.0620 kg/ha,1.0
same,"herbicidal rating, CYPSE",[5]; rate 0.0320 kg/ha,0.0
same,"herbicidal rating, CYPSE",[5]; rate 0.1250 kg/ha,0.0
same,Preemergence herbicidal rating CHEAL,[6]; Rate 0.0620 kg/ha,5.0
same,CHEAL preemergence herbicidal rating,[6]; Rate 0.1250 kg/ha,9.0
same,CHEAL preemergence herbicidal rating,[6]; Rate 0.2500 kg/ha,9.0
same,Preemergence herbicidal rating AMBEL,[7]; Rate 0.0620 kg/ha,0.0
same,AMBEL preemergence herbicidal rating,[7]; Rate 0.1250 kg/ha,0.0
same,AMBEL preemergence herbicidal rating,[7]; Rate 0.2500 kg/ha,0.0
same,CASOB preemergence herbicidal rating,[8]; Rate 0.1250 kg/ha,0.0
same,CASOB preemergence herbicidal rating,[8]; Rate 0.2500 kg/ha,0.0
same,"herbicidal rating, MOOVA",[9]; rate 0.0320 kg/ha,9.0
same,"herbicidal rating, MOOVA",[9]; rate 0.1250 kg/ha,9.0
same,"Postemergence herbicidal rating, ZEAMX","ZEAMX (Corn, Field); rate 0.0320 kg/ha",4.5
same,"Postemergence herbicidal rating, ZEAMX","ZEAMX (Corn, Field); rate 0.0620 kg/ha",5.0
same,"Postemergence herbicidal rating, IPOHE",[10]; rate 0.0320 kg/ha,4.0
same,"Postemergence herbicidal rating, IPOHE",[10]; rate 0.0620 kg/ha,4.0
same,Preemergence herbicidal rating TRZAWR,[11]; Rate 0.0620 kg/ha,0.0
same,TRZAWR preemergence herbicidal rating,[11]; Rate 0.1250 kg/ha,0.0
same,TRZAWR preemergence herbicidal rating,[11]; Rate 0.2500 kg/ha,1.0
same,"Postemergence herbicidal rating, ORYSAT","ORYSAT (Rice, Tebonnet) [12]; rate 0.0320 kg/ha",1.5
same,"Postemergence herbicidal rating, ORYSAT","ORYSAT (Rice, Tebonnet) [12]; rate 0.0620 kg/ha",2.0
same,Preemergence herbicidal rating ORYSAT,"ORYSAT (Rice, Tebonnet) [13]; Rate 0.0620 kg/ha",0.0
same,ORYSAT preemergence herbicidal rating,"ORYSAT (Rice, Tebonnet) [13]; Rate 0.1250 kg/ha",0.0
same,ORYSAT preemergence herbicidal rating,"ORYSAT (Rice, Tebonnet) [13]; Rate 0.2500 kg/ha",1.0
same,"herbicidal rating, ECHORC",[14]; rate 0.0320 kg/ha,0.0
same,"herbicidal rating, ECHORC",[14]; rate 0.1250 kg/ha,0.0
same,Preemergence herbicidal rating GALAP,GALAP (Galium aparine); Rate 0.0620 kg/ha,0.0
same,GALAP preemergence herbicidal rating,GALAP (Galium aparine); Rate 0.1250 kg/ha,0.0
same,GALAP preemergence herbicidal rating,GALAP (Galium aparine); Rate 0.2500 kg/ha,0.0
same,"Postemergence herbicidal rating, SETVI",SETVI (Setaria viridis) [15]; rate 0.0320 kg/ha,0.0
same,"Postemergence herbicidal rating, SETVI",SETVI (Setaria viridis) [15]; rate 0.0620 kg/ha,3.0
same,"Postemergence herbicidal rating, GLXMAW",[16]; rate 0.0320 kg/ha,5.0
same,"Postemergence herbicidal rating, GLXMAW",[16]; rate 0.0620 kg/ha,5.0
same,Preemergence herbicidal rating ABUTH,[17]; Rate 0.0620 kg/ha,1.0
same,ABUTH preemergence herbicidal rating,[17]; Rate 0.1250 kg/ha,1.0
same,ABUTH preemergence herbicidal rating,[17]; Rate 0.2500 kg/ha,9.0
